Test results published in patent US20100331239A1, “CD14 AND PEPTIDES THEREOF FOR PROTECTION OF CELLS AGAINST CELL DEATH” (THE MEDICAL RESEARCH, INFRASTRUCTURE AND HEALTH SERVICES, priority 2008, published 2010).

B1: rhCD14: recombinant human soluble CD14 polypeptide, not anchored to the cell membrane (SEQ ID NO: 5) (protein, listed as Homo sapiens)
chain: MERASCLLLLLLPLVHVSATTPEPCELDDEDFRCVCNFSEPQPDWSEAFQCVSAVEVEIHAGGLNLEPFLKRVDADADPRQYADTVKALRVRRLTVGAAQVPAQLLVGALRVLAYSRLKELTLEDLKITGTMPPLPLEATGLALSSLRLRNVSWATGRSWLAELQQWLKPGLKVLSIAQAHSPAFSCEQVRAFPALTSLDLSDNPGLGERGLMAALCPHKFPAIQNLALRNTGMETPTGVCAALAAAGVQPHSLDLSHNSLRATVNPSAPRCMWSSALNSLNLSFAGLEQVPKGLPAKLRVLDLSCNRLNRAPQPDELPEVDNLTLDGNPFLVPGTALPHEGSMNSGVVPACARSTLSVGVSGTLVLLQGARGFA

Experiments:
[1] = system: intracellular expression of MO2 in lymphocytes; experiment: Blocking of monocyte secretion of CD14 in vitro; intracellular MO2 staining in lymphocytes; format: cell-based; details: cell secretion blocked; staining with anti MO2 antibodies
Source text: Further support for the concept that lymphocytes are capable of MO2 uptake is found in another experiment in which monocyte secretion of CD14 in vitro was blocked with Brefeldin A (a drug blocking the Golgi system thus inhibiting cell secretion).

[2] = system: human lymphocytes and human CD3 positive lymphocytes; experiment: Gliotoxin- or PMA-induced apoptosis of human mononuclear cells cultured overnight; FACS readout by DiOC6(3), 7AAD or cell size; format: cell-based; details: for protection of lymphocytes from gliotoxin-induced apoptosis: CD3+ cultures, DioC6(3) staining, pMO2 0.5 or 0.25 mg/ml (0.2 and 0.1 mM), FIG. 11; for protective (anti-apoptotic) effect in vitro: DiOC6(3), 7AAD and cell size, FIGS. 11-13
Description: The changes in the mitochondria membrane potential can be measured with 3,3′-Dihexyloxacarbocyanine iodide (Dioc6(3)). The binding to the mitochondria membrane is relative to its potential, the highest binding occurs in live and intact cells; the lowest in dead cells. The binding is monitored by flow cytometry (FL1 channel).
After overnight culture (see below), cells are washed in PBS and are treated with 40 nM DiOC6(3) for 15 min at 37° C. Cells are then washed in PBS, stained for lymphocytes surface markers such as CD3/CD4/CD8, with the appropriate antibodies, for 30 min at 4° C., washed again in PBS, resuspended in 0.5 ml PBS and analyzed using the FACS (flow cytometry).
7AAD is a nucleic acid dye that binds to […] DNA, selectively to GC regions of DNA. No binding is observed in live cells. The binding to apoptotic cells is proportional to the degree of apoptosis and membrane damage. The 7AAD fluorescence is detected in the far-red range of the spectrum (650 nm), in the FL3 channel.
After overnight culture (see below), cells are washed with PBS and are stained with monoclonal antibodies (CD3/4/8) for 30 min at 4° C., then washed again in PBS. Cells are then incubated with 7AAD (20 μg/ml) for 20 min at 4° C. in the dark and directly analyzed using the FACS (flow cytometry).
As a result of the process of apoptosis, cells undergo a cytoplasm shrinkage, which can be detected as a decrease in cell size as observed by the forward scatter position of the cells analyzed by FACS; the smaller lymphocytes are apoptotic, the larger are intact.
Mononuclear cells, freshly obtained from peripheral blood on a Ficoll-Hypaque gradient are washed in PBS and resuspended in RPMI supplemented with 10% fetal calf serum, glutamine, antibiotics, non-essential amino acids and sodium pyruvate, at a concentration of 4×10^6 cells per ml. Cells (0.5 ml per well) are incubated overnight, in 24 well plates, in the presence of Gliotoxin (0.1 μg/ml) or PMA (1 μg/ml) and with pMO2 or pSCR peptides (0.2, 0.1, 0.05 mM equivalent to 0.5, 0.25 and 0.125 mg/ml); as a control DMSO—the diluent of the peptides—was used at the appropriate dilution or with recombinant human CD14 (10 and 5 μg/ml). For the experiments aimed at neutralizing the human rCD14, monoclonal antibodies against CD14 or against actin (as a control) are added, together with the CD14, at a final concentration of 15 μg/ml.
After the overnight incubation, cells are processed for apoptosis assessment using the methods described above.
The effect of recombinant human CD14 on the induction of apoptosis in human lymphocytes and in human CD3 positive lymphocytes was tested in vitro. Human mononuclear cells obtained from healthy individuals were incubated with apoptosis inducers, gliotoxin or PMA. […] Namely, recombinant human CD14 protects lymphocytes from gliotoxin-induced apoptosis. […] Two parameters were measured: cell size (A), and mitochondrial membrane potential determined by Dioc6 (3) binding (B). In (A) there is a shift to the left (characteristic to apoptotic cells) under gliotoxin treatment compared to “medium”, and a reversal to normal size in the presence of rhCD14. In (B) low binding of Dioc6 (3) in the presence of gliotoxin (characteristic to apoptotic cells) can be observed, and the effect is reversed by rhCD14.
In addition, in order to investigate the spectrum of effective concentrations of rhCD14, mononuclear cells were cultured overnight in the presence of gliotoxin and varying concentrations of rhCD14, ranging from 10 to 0.6 μg/ml. Apoptosis of CD3+ cells was measured with Dioc6(3). As expected, cells cultured without gliotoxin included a very low number of apoptotic cells, about 0.3% of the cultured cells.
As explained above, the epitopes recognized by this monoclonal MO2 antibody were mapped using a random peptide library, and one of the specific peptides (amino acids 139-160 of CD14; pMO2) was synthesized. […]

[3] = system: CD3 positive and CD3 negative cells; experiment: Intracellular binding / penetration of pMO2-biotin into mononuclear cells (streptavidin-APC, FACS); format: cell-based, human
Description: The cells were incubated for 3 hours with pMO2-biotin or DMSO (the peptide diluent) as a control. In order to visualize the biotin-labeled pMO2, the cells were washed and stained with anti-CD3 antibodies and fluorescent streptavidin (streptavidin-APC), with or without prior fixation and permeabilization.

[4] = 0.2 mM peptide, gliotoxin, FIGS. 14, 15

| Molecule | change of intracellular expression of MO2 in lymphocytes [1] | efficiency in protecting cells from apoptosis [2, 4] | protection of lymphocytes from gliotoxin-induced apoptosis [2] | protective (anti-apoptotic) effect in vitro ([2]; gliotoxin) | penetration into lymphocytes ([3]; 3 hours incubation with pMO2-biotin, visualized only upon fixation and permeabilization, FIG. 16) | time of incubation for penetration into the majority of the lymphocytes ([3]; CD3 positive and CD3 negative cells in vitro, FIG. 17) [min] | percent protection from apoptosis ([2]; 0.05 mM peptide, gliotoxin vs gliotoxin and control diluent, FIG. 14) | efficiency in protecting cells from apoptosis ([2]; 0.1 mM peptide, gliotoxin, FIG. 14) | effect on induced apoptosis of lymphocytes and of CD3 positive lymphocytes ([2]; apoptosis inducers gliotoxin or PMA, added during the incubation) | concentration at which inhibition of apoptosis is already effective ([2]; gliotoxin, overnight, rhCD14 titrated 10 to 0.6 μg/ml, CD3+ cells, Dioc6(3), FIG. 6) [µg/mL] |
| --- | --- | --- | --- | --- | --- | --- | --- | --- | --- | --- |
| C[C@H]1CCC/C=C/[C@@H]2C[C@H](O)C[C@H]2[C@H](O)/C=C/C(=O)O1 [Brefeldin A] | substantial decrease |  |  |  |  |  |  |  |  |  |
| ALGTSLARLSNRLWSVGTAWSR (listed as Homo sapiens) [pSCR, scrambled control peptide based on the same amino acids as pMO2, reference compound] |  | no protection | not | did not show any protective effect |  |  |  |  |  |  |
| ATGLALSSLRLRNVSWATGRSW [pMO2] |  | very high efficiency | equally protect | retain the anti-apoptotic effect of the whole recombinant human CD14 | penetrates lymphocytes | ≤ 10 | about 45% | very high efficiency |  |  |
| B1 |  |  | equally protect |  |  |  |  |  | blocked significantly | 1.25 |
